From ChEMBL document CHEMBL4229379, “Synthesis and structure-activity relationship of novel bisindole amidines active against MDR Gram-positive and Gram-negative bacteria” (Eur J Med Chem, 2018)
≈ marks a conversion by molar mass, not a printed value.

Columns and labels:
Klebsiella pneumoniae [1] = assay: Antibacterial activity against extended-spectrum beta-lactamase harboring Klebsiella pneumoniae 12-8 after 18 hrs by CLSI broth microdilution method; format: functional; details: 12-8, 18 h
Citrobacter freundii = assay: Antibacterial activity against Citrobacter freundii ATCC 43864 after 18 hrs by CLSI broth microdilution method; format: functional; details: ATCC 43864, 18 h
Enterococcus faecium [2] = assay: Antibacterial activity against vancomycin-resistant Enterococcus faecium 12-1 after 18 hrs by CLSI broth microdilution method; format: functional; details: 12-1, 18 h
Enterococcus faecalis [3] = assay: Antibacterial activity against vancomycin-sensitive Enterococcus faecalis 12-5 after 18 hrs by CLSI broth microdilution method; format: functional; details: 12-5, 18 h
Staphylococcus aureus [4] = assay: Antibacterial activity against methicillin-resistant Staphylococcus aureus 12-33 after 18 hrs by CLSI broth microdilution method; format: functional; details: 12-33, 18 h
Staphylococcus aureus [5] = assay: Antibacterial activity against methicillin-resistant Staphylococcus aureus ATCC 33591 after 18 hrs by CLSI broth microdilution method; format: functional; details: ATCC 33591, 18 h
Pseudomonas aeruginosa [6] = assay: Antibacterial activity against Pseudomonas aeruginosa 12-16 after 18 hrs by CLSI broth microdilution method; format: functional; details: 12-16, 18 h
Escherichia coli [7] = assay: Antibacterial activity against extended-spectrum beta-lactamase deficient Escherichia coli 1515 after 18 hrs by CLSI broth microdilution method; format: functional; details: Escherichia coli, 1515, 18 h
Staphylococcus aureus [8] = assay: Antibacterial activity against methicillin-sensitive Staphylococcus aureus ATCC 29213 after 18 hrs by CLSI broth microdilution method; format: functional; details: ATCC 29213, 18 h
Enterococcus faecium [9] = assay: Antibacterial activity against vancomycin-resistant Enterococcus faecium ATCC 700221 after 18 hrs by CLSI broth microdilution method; format: functional; details: ATCC 700221, 18 h
Klebsiella aerogenes = assay: Antibacterial activity against Enterobacter aerogenes ATCC 13048 after 18 hrs by CLSI broth microdilution method; format: functional; details: ATCC 13048, 18 h
Escherichia coli [10] = assay: Antibacterial activity against extended-spectrum beta-lactamase deficient Escherichia coli ATCC 25922 after 18 hrs by CLSI broth microdilution method; format: functional; details: ATCC 25922, 18 h
Enterobacter cloacae = assay: Antibacterial activity against Enterobacter cloacae ATCC 43560 after 18 hrs by CLSI broth microdilution method; format: functional; details: ATCC 43560, 18 h
Escherichia coli [11] = assay: Antibacterial activity against extended-spectrum beta-lactamase deficient Escherichia coli 12-14 after 18 hrs by CLSI broth microdilution method; format: functional; details: 12-14, 18 h
Providencia rettgeri = assay: Antibacterial activity against Providencia rettgeri ATCC 31052 after 18 hrs by CLSI broth microdilution method; format: functional; details: ATCC 31052, 18 h
[12] = system: Staphylococcus epidermidis; assay: Antibacterial activity against methicillin-sensitive Staphylococcus epidermidis 12-6 after 18 hrs by CLSI broth microdilution method; format: functional; details: 12-6, 18 h
[13] = system: Staphylococcus epidermidis; assay: Antibacterial activity against methicillin-resistant Staphylococcus epidermidis 12-8 after 18 hrs by CLSI broth microdilution method; format: functional; details: 12-8, 18 h
Proteus vulgaris = assay: Antibacterial activity against Proteus vulgaris ATCC 29905 after 18 hrs by CLSI broth microdilution method; format: functional; details: ATCC 29905, 18 h
Enterococcus faecalis [14] = assay: Antibacterial activity against vancomycin-sensitive Enterococcus faecalis ATCC 29212 after 18 hrs by CLSI broth microdilution method; format: functional; details: ATCC 29212, 18 h
[15] = system: Acinetobacter calcoaceticus; assay: Antibacterial activity against Acinetobacter calcoaceticus ATCC 19606 after 18 hrs by CLSI broth microdilution method; format: functional; details: ATCC 19606, 18 h
Klebsiella pneumoniae [16] = assay: Antibacterial activity against new delhi metallo-beta-lactamase-1 harboring Klebsiella pneumoniae ATCC BAA-2146 after 18 hrs by CLSI broth microdilution method; format: functional; details: ATCC BAA-2146, 18 h
Escherichia coli [17] = assay: Antibacterial activity against extended-spectrum beta-lactamase harboring Escherichia coli 12-15 after 18 hrs by CLSI broth microdilution method; format: functional; details: 12-15, 18 h
Klebsiella pneumoniae [18] = assay: Antibacterial activity against extended-spectrum beta-lactamase harboring Klebsiella pneumoniae ATCC 700603 after 18 hrs by CLSI broth microdilution method; format: functional; details: Klebsiella pneumoniae, 700603, 18 h
Staphylococcus aureus [19] = assay: Antibacterial activity against methicillin-sensitive Staphylococcus aureus 12-28 after 18 hrs by CLSI broth microdilution method; format: functional; details: 12-28, 18 h
Klebsiella pneumoniae [20] = assay: Antibacterial activity against extended-spectrum beta-lactamase deficient Klebsiella pneumoniae 7 after 18 hrs by CLSI broth microdilution method; format: functional; details: Klebsiella pneumoniae, 7, 18 h
Staphylococcus aureus [21] = assay: Antibacterial activity against methicillin-sensitive Staphylococcus aureus 15 after 18 hrs by CLSI broth microdilution method; format: functional; details: Staphylococcus aureus, 15, 18 h
Proteus mirabilis = assay: Antibacterial activity against Proteus mirabilis 12-6 after 18 hrs by CLSI broth microdilution method; format: functional; details: 12-6, 18 h
Klebsiella pneumoniae [22] = assay: Antibacterial activity against extended-spectrum beta-lactamase deficient Klebsiella pneumoniae 12-4 after 18 hrs by CLSI broth microdilution method; format: functional; details: 12-4, 18 h
[23] = Cytotoxicity against HEK293T cells assessed as reduction in cell viability after 48 hrs by MTS assay; format: cell-based, HEK-293T; details: human
[24] = system: Stenotrophomonas maltophilia; assay: Antibacterial activity against Stenotrophomonas maltophilia ATCC 13636 after 18 hrs by CLSI broth microdilution method; format: functional; details: ATCC 13636, 18 h
Enterococcus faecium [25] = assay: Antibacterial activity against vancomycin-sensitive Enterococcus faecium 12-3 after 18 hrs by CLSI broth microdilution method; format: functional; details: 12-3, 18 h
Pseudomonas aeruginosa [26] = assay: Antibacterial activity against Pseudomonas aeruginosa PAO1 after 18 hrs by CLSI broth microdilution method; format: functional; details: PAO1, 18 h
Serratia marcescens = assay: Antibacterial activity against Serratia marcescens ATCC 21074 after 18 hrs by CLSI broth microdilution method; format: functional; details: ATCC 21074, 18 h
Enterococcus faecalis [27] = assay: Antibacterial activity against vancomycin-resistant Enterococcus faecalis 09-9 after 18 hrs by CLSI broth microdilution method; format: functional; details: 09-9, 18 h
Enterococcus faecalis [28] = assay: Antibacterial activity against vancomycin-resistant Enterococcus faecalis ATCC 51299 after 18 hrs by CLSI broth microdilution method; format: functional; details: ATCC 51299, 18 h
Pseudomonas aeruginosa [29] = assay: Antibacterial activity against Pseudomonas aeruginosa ATCC 27853 after 18 hrs by CLSI broth microdilution method; format: functional; details: ATCC 27853, 18 h
[30] = system: Staphylococcus epidermidis; assay: Antibacterial activity against methicillin-sensitive Staphylococcus epidermidis ATCC 12228 after 18 hrs by CLSI broth microdilution method; format: functional; details: ATCC 12228, 18 h

SMILES	MIC (Klebsiella pneumoniae [1]) [µg/mL]	MIC (Citrobacter freundii) [µg/mL]	MIC (Enterococcus faecium [2]) [µg/mL]	MIC (Enterococcus faecalis [3]) [µg/mL]	MIC (Staphylococcus aureus [4]) [µg/mL]	MIC (Staphylococcus aureus [5]) [µg/mL]	MIC (Pseudomonas aeruginosa [6]) [µg/mL]	MIC (Escherichia coli [7]) [µg/mL]	MIC (Staphylococcus aureus [8]) [µg/mL]	MIC (Enterococcus faecium [9]) [µg/mL]	MIC (Klebsiella aerogenes) [µg/mL]	MIC (Escherichia coli [10]) [µg/mL]	MIC (Enterobacter cloacae) [µg/mL]	MIC (Escherichia coli [11]) [µg/mL]	MIC (Providencia rettgeri) [µg/mL]	MIC [12] [µg/mL]	MIC [13] [µg/mL]	MIC (Proteus vulgaris) [µg/mL]	MIC (Enterococcus faecalis [14]) [µg/mL]	MIC [15] [µg/mL]	also measured
N=C(c1ccc2cc(-c3ccc(-c4cc5ccc(C(=N)N6CC=CC6)cc5[nH]4)cc3)[nH]c2c1)N1CC=CC1	16 (≈ 32.2 µM)	8 (≈ 16.1 µM)	16 (≈ 32.2 µM)	8 (≈ 16.1 µM)	4 (≈ 8.05 µM)	2 (≈ 4.03 µM)	> 128	16 (≈ 32.2 µM)	4 (≈ 8.05 µM)	16 (≈ 32.2 µM)	8 (≈ 16.1 µM)	8 (≈ 16.1 µM)	8 (≈ 16.1 µM)	16 (≈ 32.2 µM)	16 (≈ 32.2 µM)	2 (≈ 4.03 µM)	4 (≈ 8.05 µM)	32 (≈ 64.4 µM)	8 (≈ 16.1 µM)	32 (≈ 64.4 µM)	MIC (Klebsiella pneumoniae [16]): 8 µg/mL (≈ 16.1 µM); MIC (Escherichia coli [17]): 8 µg/mL (≈ 16.1 µM); MIC (Klebsiella pneumoniae [18]): 32 µg/mL (≈ 64.4 µM); MIC (Staphylococcus aureus [19]): 4 µg/mL (≈ 8.05 µM); MIC (Klebsiella pneumoniae [20]): 8 µg/mL (≈ 16.1 µM); MIC (Staphylococcus aureus [21]): 4 µg/mL (≈ 8.05 µM); MIC (Proteus mirabilis): 64 µg/mL (≈ 129 µM); MIC (Klebsiella pneumoniae [22]): 16 µg/mL (≈ 32.2 µM); CC50 at 48 h [23]: 12.4 µg/mL (≈ 24.9 µM); MIC [24]: 32 µg/mL (≈ 64.4 µM); MIC (Enterococcus faecium [25]): 16 µg/mL (≈ 32.2 µM); MIC (Pseudomonas aeruginosa [26]): > 128 µg/mL; MIC (Serratia marcescens): > 128 µg/mL; MIC (Enterococcus faecalis [27]): 8 µg/mL (≈ 16.1 µM); MIC (Enterococcus faecalis [28]): 8 µg/mL (≈ 16.1 µM); MIC (Pseudomonas aeruginosa [29]): > 128 µg/mL; MIC [30]: 1 µg/mL (≈ 2.01 µM)
CN(C)C(=N)c1ccc2cc(-c3ccc4cc(-c5cc6ccc(C(=N)N(C)C)cc6[nH]5)ccc4c3)[nH]c2c1	128 (≈ 257 µM)	32 (≈ 64.2 µM)	32 (≈ 64.2 µM)	32 (≈ 64.2 µM)	2 (≈ 4.01 µM)	2 (≈ 4.01 µM)	> 128	32 (≈ 64.2 µM)	2 (≈ 4.01 µM)	32 (≈ 64.2 µM)	> 128	32 (≈ 64.2 µM)	64 (≈ 128 µM)	32 (≈ 64.2 µM)	128 (≈ 257 µM)	32 (≈ 64.2 µM)	1 (≈ 2.01 µM)	64 (≈ 128 µM)	32 (≈ 64.2 µM)	128 (≈ 257 µM)	MIC (Klebsiella pneumoniae [16]): > 128 µg/mL; MIC (Escherichia coli [17]): 64 µg/mL (≈ 128 µM); MIC (Klebsiella pneumoniae [18]): > 128 µg/mL; MIC (Staphylococcus aureus [19]): 2 µg/mL (≈ 4.01 µM); MIC (Klebsiella pneumoniae [20]): > 128 µg/mL; MIC (Staphylococcus aureus [21]): 2 µg/mL (≈ 4.01 µM); MIC (Proteus mirabilis): > 128 µg/mL; MIC (Klebsiella pneumoniae [22]): > 128 µg/mL; CC50 at 48 h [23]: 6.2 µg/mL (≈ 12.4 µM); MIC [24]: 32 µg/mL (≈ 64.2 µM); MIC (Enterococcus faecium [25]): 16 µg/mL (≈ 32.1 µM); MIC (Pseudomonas aeruginosa [26]): > 128 µg/mL; MIC (Serratia marcescens): > 128 µg/mL; MIC (Enterococcus faecalis [27]): 4 µg/mL (≈ 8.02 µM); MIC (Enterococcus faecalis [28]): 32 µg/mL (≈ 64.2 µM); MIC (Pseudomonas aeruginosa [29]): > 128 µg/mL; MIC [30]: 2 µg/mL (≈ 4.01 µM)
